#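 Cells were grown in 96-well plates and exposed to each compound for 48 hours at five concentrations; endpoints were interpolated linearly between bracketing concentrations, or set to the highest concentration if not reached. The concentration for 50% growth inhibition is given as GI50.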 The source made the active and inactive calls. Cut-off read from the data, not from the text of the source: active = GI50 up to about 1.1 µM and inactive = higher.
# How the values were obtained:
# Assay in all cases: DTP human tumour cell line panel, 48 h
# [1] = tested on: 786-0
# [2] = tested on: A498
# [3] = tested on: ACHN
# [4] = tested on: CCRF-CEM
# [5] = tested on: COLO 205
# [6] = tested on: HCT-116
# [7] = tested on: HL-60
# [8] = tested on: LOX IMVI
# [9] = tested on: M14
# [10] = tested on: MOLT-4
# [11] = tested on: Malme-3M
# [12] = tested on: NCI-H460
# [13] = tested on: OVCAR-8
# [14] = tested on: RPMI-8226
# [15] = tested on: SF-268
# [16] = tested on: SK-MEL-5
# [17] = tested on: SNB-75
# [18] = tested on: U-251
# [19] = tested on: UACC-257
# [20] = tested on: UO-31
Structure (SMILES),GI50 [1],GI50 [2],GI50 [3],GI50 [4],GI50 [5],GI50 [6],GI50 [7],GI50 [8],GI50 [9],GI50 [10],GI50 [11],GI50 [12],GI50 [13],GI50 [14],GI50 [15],GI50 [16],GI50 [17],GI50 [18],GI50 [19],GI50 [20]
Oc1cc(-n2cccn2)c(O)cc1-n1cccn1,16.6 µM (inactive),> 72.8 µM (inactive),22.4 µM (inactive),7.11 µM (inactive),18.1 µM (inactive),26.2 µM (inactive),6.43 µM (inactive),21 µM (inactive),27 µM (inactive),9.55 µM (inactive),30.7 µM (inactive),> 100 µM (inactive),26.2 µM (inactive),15.2 µM (inactive),55.7 µM (inactive),32.6 µM (inactive),> 69.2 µM (inactive),52.4 µM (inactive),32.1 µM (inactive),23.8 µM (inactive)
CCOc1cc2c(cc1O)/C(=N\N)C[C@@H]1[C@@H]2CC[C@]2(C)[C@@H](O)CC[C@@H]12,4.48 µM (inactive),12.4 µM (inactive),5.61 µM (inactive),2.38 µM (inactive),27.4 µM (inactive),2.34 µM (inactive),0.337 µM (active),4.12 µM (inactive),4.8 µM (inactive),4.27 µM (inactive),1.54 µM (inactive),2.99 µM (inactive),7.1 µM (inactive),4.48 µM (inactive),5.3 µM (inactive),1.28 µM (inactive),3.1 µM (inactive),3.78 µM (inactive),7.43 µM (inactive),3.96 µM (inactive)
COc1cc(/C=C2\C[C@H]3[C@@H]4CC=C5C[C@@H](O)CC[C@]5(C)[C@H]4CC[C@]3(C)[C@H]2O)cc(OC)c1OC,10.8 µM (inactive),20.9 µM (inactive),6.27 µM (inactive),–,7.31 µM (inactive),8.05 µM (inactive),4.91 µM (inactive),8.53 µM (inactive),20.7 µM (inactive),5.5 µM (inactive),33.1 µM (inactive),12 µM (inactive),19 µM (inactive),4.92 µM (inactive),54.8 µM (inactive),6.28 µM (inactive),9.06 µM (inactive),11 µM (inactive),14.8 µM (inactive),13 µM (inactive)
C=CCCC(OCOCCOC)c1cc(C)c(O[Si](C)(C)C(C)(C)C)c(C)c1 (stereo not given),14.9 µM (inactive),22.8 µM (inactive),13.2 µM (inactive),13.3 µM (inactive),16.7 µM (inactive),–,3.28 µM (inactive),13 µM (inactive),34.4 µM (inactive),4.4 µM (inactive),19.6 µM (inactive),13.9 µM (inactive),19.3 µM (inactive),4.81 µM (inactive),15.2 µM (inactive),10.1 µM (inactive),15.6 µM (inactive),14.3 µM (inactive),4.58 µM (inactive),11.7 µM (inactive)
CC(C)[Si](OC1=C(C(=O)N(C)c2cccc(Cl)c2)CCCC1)(C(C)C)C(C)C,18.3 µM (inactive),16.9 µM (inactive),16.2 µM (inactive),29.7 µM (inactive),15.1 µM (inactive),–,5.61 µM (inactive),17.3 µM (inactive),15.1 µM (inactive),10.4 µM (inactive),11.7 µM (inactive),14.1 µM (inactive),16.8 µM (inactive),8.73 µM (inactive),13.3 µM (inactive),14.1 µM (inactive),10.4 µM (inactive),13.8 µM (inactive),12.5 µM (inactive),14.5 µM (inactive)
COc1ccc(/C(=N/O)C(c2ccc(OC)cc2)C2C(=O)Oc3ccccc32)cc1 (stereo not given),> 100 µM (inactive),> 100 µM (inactive),70.6 µM (inactive),> 100 µM (inactive),1.66 µM (inactive),58.6 µM (inactive),52.5 µM (inactive),79.6 µM (inactive),51.3 µM (inactive),> 100 µM (inactive),63.1 µM (inactive),71.3 µM (inactive),61.7 µM (inactive),> 100 µM (inactive),> 100 µM (inactive),24.8 µM (inactive),82.8 µM (inactive),87.5 µM (inactive),34.7 µM (inactive),35.5 µM (inactive)
COc1cc2ccc1-c1cc(ccc1O)CC1c3cc4c(cc3CCN1C)Oc1c(OC)cc3c(c1O4)C(C2)N(C)CC3 (stereo not given),1.69 µM (inactive),2.19 µM (inactive),2 µM (inactive),2.19 µM (inactive),–,1.46 µM (inactive),2.16 µM (inactive),1.99 µM (inactive),1.82 µM (inactive),1.83 µM (inactive),1.89 µM (inactive),1.75 µM (inactive),1.87 µM (inactive),1.91 µM (inactive),1.81 µM (inactive),2.08 µM (inactive),1.8 µM (inactive),1.69 µM (inactive),1.72 µM (inactive),1.8 µM (inactive)
NC1=NS(=O)(=O)Nc2nc(-c3ccc([N+](=O)[O-])o3)[nH]c21,15.6 µM (inactive),76.6 µM (inactive),16.9 µM (inactive),3.6 µM (inactive),> 10 µM (inactive),4.58 µM (inactive),1.9 µM (inactive),15.9 µM (inactive),14.9 µM (inactive),9.62 µM (inactive),16.7 µM (inactive),20.2 µM (inactive),25.1 µM (inactive),10.7 µM (inactive),20 µM (inactive),18.3 µM (inactive),16 µM (inactive),16.9 µM (inactive),–,16.2 µM (inactive)
CCCC/C(C)=N/NC(N)=S,> 100 µM (inactive),> 100 µM (inactive),> 100 µM (inactive),> 100 µM (inactive),> 100 µM (inactive),> 100 µM (inactive),14.5 µM (inactive),> 100 µM (inactive),> 100 µM (inactive),> 100 µM (inactive),> 100 µM (inactive),> 100 µM (inactive),> 100 µM (inactive),> 100 µM (inactive),> 100 µM (inactive),> 100 µM (inactive),> 100 µM (inactive),> 100 µM (inactive),> 100 µM (inactive),> 100 µM (inactive)
O=C(/C=C/NC(=O)OCc1ccccc1)OCc1ccccc1,> 100 µM (inactive),> 100 µM (inactive),> 100 µM (inactive),> 100 µM (inactive),> 100 µM (inactive),> 100 µM (inactive),> 100 µM (inactive),> 100 µM (inactive),> 100 µM (inactive),> 100 µM (inactive),> 100 µM (inactive),> 100 µM (inactive),> 100 µM (inactive),> 100 µM (inactive),> 100 µM (inactive),> 100 µM (inactive),32.7 µM (inactive),> 100 µM (inactive),> 100 µM (inactive),32.5 µM (inactive)
Cc1cccc(CC(Cc2c(C)cccc2C(=O)O)C(=O)O)c1 (stereo not given),> 100 µM (inactive),> 100 µM (inactive),> 100 µM (inactive),> 100 µM (inactive),> 100 µM (inactive),> 100 µM (inactive),> 100 µM (inactive),> 100 µM (inactive),> 100 µM (inactive),> 100 µM (inactive),> 100 µM (inactive),> 100 µM (inactive),> 100 µM (inactive),> 100 µM (inactive),> 100 µM (inactive),4.49 µM (inactive),> 100 µM (inactive),> 100 µM (inactive),> 100 µM (inactive),> 100 µM (inactive)
C1=CC=C2NCCSCC/N=C3/C=CC=CC=C3NCCSCC/N=C\2C=C1,> 100 µM (inactive),> 100 µM (inactive),> 100 µM (inactive),> 100 µM (inactive),> 100 µM (inactive),> 100 µM (inactive),> 100 µM (inactive),> 100 µM (inactive),> 100 µM (inactive),> 100 µM (inactive),> 100 µM (inactive),> 100 µM (inactive),> 100 µM (inactive),> 100 µM (inactive),> 100 µM (inactive),> 100 µM (inactive),> 100 µM (inactive),> 100 µM (inactive),> 100 µM (inactive),> 100 µM (inactive)
CN(C)CCCNc1ccc2nnn3c4ccc([N+](=O)[O-])cc4c(=O)c1c23,0.624 µM (active),2.26 µM (inactive),0.542 µM (active),0.785 µM (active),0.834 µM (active),0.404 µM (active),1.83 µM (inactive),0.641 µM (active),2.14 µM (inactive),0.21 µM (active),3.56 µM (inactive),0.313 µM (active),0.597 µM (active),0.946 µM (active),1.14 µM (inactive),1.7 µM (inactive),1.51 µM (inactive),0.738 µM (active),3.4 µM (inactive),1.28 µM (inactive)
CCc1ccccc1NC(=O)c1cccc([N+](=O)[O-])c1O,71.6 µM (inactive),25.3 µM (inactive),18.1 µM (inactive),28.2 µM (inactive),17.2 µM (inactive),24.2 µM (inactive),30.6 µM (inactive),16.3 µM (inactive),47.5 µM (inactive),18.6 µM (inactive),24.4 µM (inactive),20.8 µM (inactive),46.7 µM (inactive),5.41 µM (inactive),25.2 µM (inactive),8.89 µM (inactive),20.9 µM (inactive),23 µM (inactive),19.9 µM (inactive),22.2 µM (inactive)

# Source: ChEMBL document CHEMBL1201862, “PubChem BioAssay data set” (2004)
